# In patent US7659366B2, “Peptide with putative role in cytoskeletal protection” (priority 2005, dated 2010):
# Numbered stars: 1 amine (or outer) side, 2 acyl side, 3 side chain; on linkers, the order of the positions; unused ones are H or OH. Bridge positions count the residues as written; N and C are the ends. Square brackets hold non-standard residues; d marks the D form. Peptide text beside a SMILES is read from it. Trp(2-yl) = O=C([C@H](Cc1c([*:3])[nH]c2ccccc12)N[*:1])[*:2]; Leu(4R-OH,5-OH) = C[C@](O)(CO)C[C@H](N)C(=O)O; cisHyp = O=C(O)[C@@H]1C[C@H](O)CN1
# Target: T1, G-actin (pyrene-labeled) (Oryctolagus cuniculus, UniProt P68135)
# T1 construct: purchased Cytoskeleton, Inc., Colorado
# Experiment: In vitro polymerization of pyrene-labeled G-actin
# Type: biochemical
# Conditions: buffer G with 1 mM MgCl2; conjugate 50 μg/ml, phalloidin 4 μM
# Procedure: In vitro polymerization of G-actin was performed according to the method of Maul and coworkers (Maul et al., 2003).
# This in vitro assay is based on the enhanced fluorescence of pyrene-conjugated actin that occurs during polymerization in vitro.
# For conducting the polymerization assay, general actin buffer containing pyrene actin and ATP was added to the wells. Then polymerization buffer, samples (P34 free peptide, P33 free peptide, P34BSA and P33BSA), and phalloidin (as positive control) were added to the wells. Then fluorescence intensity was read with a spectrophotometer (Excitation: 360 nm; Emission: 410 nm). The reading was done for 15 minutes with intervals of 30 seconds.
# For the assay to determine inhibition of polymerization, all the wells contained polymerization buffer to initiate polymerization. […]
# As mentioned above, in vitro polymerization of G-actin was performed according to the method of Maul and coworkers (Maul et al., 2003). […] 5 μl samples were applied on a microscope slide, and examined by fluorescence microscopy.
# P34BSA was tested for the capacity to inhibit or induce actin polymerization. […] The fluorescence intensity of the mixture was read with a microplate fluorescence reader (FL600, Bio-Tek®; Ex. 360 nm, +/−20 nm bandwidth; Em. 410 nm, +/−10 nm bandwidth). The emissions were recorded for 15 min at 30 sec intervals. […]
compound,measurement,value
"C[C@@H]1NC(=O)[C@H](C[C@@](C)(O)CO)NC(=O)[C@@H]2Cc3c([nH]c4ccccc34)SC[C@H](NC(=O)[C@@H]([C@H](C)O)NC1=O)C(=O)N1C[C@@H](O)C[C@H]1C(=O)N[C@@H](C)C(=O)N2 [phalloidin] (cyclo(A[dT]C[cisHyp]A[Trp(2-yl)][Leu(4R-OH,5-OH)]); thioether 3-6)",induction of actin polymerization,able to promote polymerization
